In general, IC50 refers to the concentration that inhibits the measured activity by half.

The values below come from patent publication US20110207751A1, “HETEROCYCLIC COMPOUNDS AND USES AS ANTICANCER AGENTS” (priority 2010, published 2011).

The test system of assay [1] is NIH 3T3 cells (the normal tissue cell line). Nature of the assay: Inhibition of cell proliferation, xCelligence cell index. Type of assay: cell-based. The following applies: Mus musculus, NIH3T3. The source says: (§1) The biological activity of compounds disclosed herein was monitored and profiled using the Real-Time Cell Electronic Sensing (RT-CES®) system from ACEA Biosciences, Inc. The RT-CES system utilizes cell-substrate impedance technology to monitor cellular behavior inside tissue culture wells in a microtiter plate format. The technology features in the integration of molecular and cell biology with microelectronics and is based on the electronic detection of biological assay process. […]
(§2) For measurement of cell-substrate or cell-electrode impedance using RT-CES technology, microelectrodes having appropriate geometries are fabricated onto the bottom surfaces of microtiter plate or similar device, facing into the wells. […] When there are changes to the biological status of the cells analogue electronic readout signals are measured automatically and in real time, and are converted to digital signals for processing and for analysis. In a RT-CES system, a cell index (arbitrary representation of change in impedance) is automatically derived and provided based on measured electrode impedance values. […]
(§3) To quantify cell status based on the measured cell-electrode impedance, a parameter termed Cell Index is derived. Cell Index is a quantitative measure of the status of the cells in an electrode-containing well. […]

The test system of assay [2] is tubulin (vinblastine-binding site). As to the kind of experiment: Spin column assay with [^3H]vinblastine. The conditions noted are these: tubulin with [^3H]vinblastine and unlabeled competitor, 37° C. 1 h. The protocol: (§4) Spin column assay. […] The reaction mixtures were incubated at 37° C. for 1 h. The samples were loaded onto Illustra™ MicroSpin™ G-50 columns (GE Healthcare) previously equilibrated with the buffer solution. The columns were placed into 1.5-ml tubes and spun at 750 g for 2 min at room temperature, and radioactivity in the flow-through was analyzed by a scintillation counter.

Assay [3] concerns MCF7 cells (human breast cancer cell line). Nature of the assay: Inhibition of cell proliferation, xCelligence cell index. The following applies: 72 hr post compound treatment, read-out: calculated IC50. Type of assay: cell-based.
Text: as §1, §2, §3

The test system of assay [4] is human cancer cell lines. Nature of the assay: RT-CES / xCelligence profiling over the panel of cell lines. Type of assay: cell-based.
Text: as §1, §2, §3

For assay [5], the system named is A549 cells. Nature of the assay: Cell-cycle distribution by flow cytometry. The class given is cell-based, human. The conditions noted are these: 37 nM, 24 hours, vs DMSO only. The protocol: In addition, we have also tested the effect of COMPOUND O on cell-cycle using flow Cytometry. Briefly, A549 cells were seeded at a density of 400,000 cells/well in 6-well tissue culture plates. Approximately 24 hours later the cells were treated with 37 nM COMPOUND O and allowed to further incubate for 24 hours. The cells were washed in PBS, trypsinized, counted and fixed in ice-cold 70% methanol and stored at 4° C. The cells were washed with PBS, stained with propidium iodide and kept on ice until flow Cytometry analysis.
For orientation: A flow cytometer gives signals particle by particle.

Assay [6] has as its system HepG2 cells (human liver cancer cell line). As to the kind of experiment: Inhibition of cell proliferation, xCelligence cell index. Type of assay: cell-based. The following applies: 72 hr post compound treatment, read-out: calculated IC50.
Text: as §1, §2, §3

The test system of assay [7] is tubulin (colchicine-binding site). As to the kind of experiment: Spin column assay with [^3H]colchicine. The following applies: tubulin with [^3H]colchicine and unlabeled competitor, 37° C. 1 h. As for the experimental part:
as §4

Where a name gives a salt, the structure may show the parent alone. Read-outs that look alike come from different tables or passages of the source.

With `CCc1ccc(Nc2nc(-c3c(C)nc4sccn34)cs2)cc1` [COMPOUND O, 2-(4-ethylphenyl)amino-4-(6-methylimidazo[2,1-b]thiazol-5-yl)-thiazole monohydrobromide], the concentration for half-maximal inhibition (IC50) was 6 µM in assay [1] (NIH 3T3, 72 hr post compound treatment, read-out: calculated IC50); 6 µM in assay [1] (NIH-3T3, read-out: IC50); 0.0744 µM in assay [3]; 0.0259 µM in assay [6]. In addition, the “amount of [^3H]vinblastine in the flow-through” value in assay [2] was “neither colchicine nor COMPOUND O affected the amount of [^3H]vinblastine in the flow-through”. Also, in assay [4] (all tested cancer cell lines), the “IC50 towards all tested cancer cell lines” value is “low nM range”. Moreover, the “effect on the proliferation of the cancer cell lines” value in assay [4] (cell lines listed in b189 (FIGS. 4-24)) is given as “exhibited inhibitory effect”. The “cell population at G2/M phase” value in assay [5] was “increased significantly”. For the same molecule, the “amount of [^3H]colchicine in the flow-through” value in assay [7] is “reduced the amount of [^3H]colchicine in the flow-through in a concentration-dependent manner”.
